Laboratory results taken from article PMC10184313, “Inhibition of Thiamine Diphosphate-Dependent Enzymes by Triazole-Based Thiamine Analogues” (ACS Medicinal Chemistry Letters, 2023).
Where two headings read alike, the source gives them in different places.

Key:
Type in all cases: biochemical
S. cerevisiae PDC = target: T1, S. cerevisiae PDC (Saccharomyces cerevisiae, UniProt P06169); test: S. cerevisiae PDC inhibitory activity assay (DCPIP reduction); conditions: compounds insufficiently soluble were excluded; for inhibition at 1500 µM: read-out: Inhibition (%) Yeast PDC
T1 construct: purchased Sigma
T1 sequence (P06169 2-563 limits assumed): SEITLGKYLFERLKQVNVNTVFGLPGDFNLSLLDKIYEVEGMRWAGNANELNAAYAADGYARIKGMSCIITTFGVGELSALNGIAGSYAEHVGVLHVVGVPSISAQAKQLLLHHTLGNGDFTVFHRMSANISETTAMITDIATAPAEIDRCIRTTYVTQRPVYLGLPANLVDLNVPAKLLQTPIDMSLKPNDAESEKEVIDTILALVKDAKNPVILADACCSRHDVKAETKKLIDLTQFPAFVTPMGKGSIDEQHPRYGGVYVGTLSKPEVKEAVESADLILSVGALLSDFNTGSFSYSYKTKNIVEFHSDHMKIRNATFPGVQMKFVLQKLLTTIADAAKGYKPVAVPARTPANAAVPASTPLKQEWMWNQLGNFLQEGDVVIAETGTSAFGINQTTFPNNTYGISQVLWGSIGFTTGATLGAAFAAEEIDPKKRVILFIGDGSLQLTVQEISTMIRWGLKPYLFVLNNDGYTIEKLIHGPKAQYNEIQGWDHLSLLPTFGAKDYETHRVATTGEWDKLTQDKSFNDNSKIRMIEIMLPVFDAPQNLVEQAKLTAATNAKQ
Procedure: S. cerevisiae PDC inhibitory activity assay. S. cerevisiae PDC was purchased from Sigma. Its activity was determined by monitoring DCPIP reduction at 600 nm using a microplate reader (CLARIOstar) and conducted as described 1,2 with some modifications. The percentage inhibition of compounds was assayed at a final concentration of 1500 µM. The reaction buffer (50 mM KH 2PO4 and 1 mM MgCl 2, pH 7) contained 300 µM ThDP (or 750 µM in the competition assay), 0.27 mM DCPIP, and 0.15 mg/ml S. cerevisiae PDC. The reaction mixture was preincubated at 37 °C for 60 min, then reaction was initiated by adding pyruvate to a final concentration of 70 mM. Specific activity was calculated using the molar extinction coefficient of DCPIP, 21 mM -1 cm -1.3 […]

A. viridans PO = target: T2, A. viridans PO (Aerococcus viridans, UniProt A9X9K8); test: A. viridans PO inhibitory activity assay (quinoneimine dye)
T2 sequence (A9X9K8 1-592): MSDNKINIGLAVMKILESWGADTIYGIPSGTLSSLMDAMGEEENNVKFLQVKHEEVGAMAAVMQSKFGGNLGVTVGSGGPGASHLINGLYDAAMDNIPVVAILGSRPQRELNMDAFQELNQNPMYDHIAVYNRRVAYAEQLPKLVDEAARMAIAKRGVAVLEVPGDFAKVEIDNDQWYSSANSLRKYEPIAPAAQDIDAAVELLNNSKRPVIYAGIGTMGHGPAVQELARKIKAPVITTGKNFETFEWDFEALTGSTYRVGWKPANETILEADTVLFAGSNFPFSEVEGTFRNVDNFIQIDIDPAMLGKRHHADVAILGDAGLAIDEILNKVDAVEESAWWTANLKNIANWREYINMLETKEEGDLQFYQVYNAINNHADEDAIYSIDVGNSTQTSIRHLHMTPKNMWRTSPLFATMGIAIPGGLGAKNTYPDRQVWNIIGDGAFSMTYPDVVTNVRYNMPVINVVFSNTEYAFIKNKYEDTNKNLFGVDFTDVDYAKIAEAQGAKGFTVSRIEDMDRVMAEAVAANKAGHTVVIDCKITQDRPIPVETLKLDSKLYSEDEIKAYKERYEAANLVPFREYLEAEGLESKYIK
Procedure: A. viridans PO inhibitory activity assay. A. viridans PO and horseradish peroxidase were purchased from Sigma. A. viridans PO activity was determined by monitoring appearance of quinoneimine dye at 550 nm using a microplate reader (CLARIOstar) and conducted as described 1 with some modifications.
The percentage inhibition of compounds against A. viridans PO was assayed at a final concentration of 250 µM. The reaction buffer (50 mM KH 2PO4 and 10 mM MgCl 2, pH 5.9) contained 50 µM ThDP (or 125 µM in the competition assay), 10 µM flavin adenine dinucleotide (FAD), 0.15% 4-Aminoantipyrine, 0.3% N-Ethyl-N-(2-hydroxy-3-sulfopropyl)-m-toluidine (EHSPT), 50 µg/mL horseradish peroxidase and 0.35 U/mL A. viridans PO. The reaction mixture was preincubated at 37 °C for 30 min, then reaction was initiated by adding pyruvate to a final concentration of 50 mM. To determine the IC 50, inhibitor concentration was varied (2-1000 µM) with ThDP concentration at 50 µM. 1 unit of PO activity is defined as 1 μmol of hydrogen peroxide produced per minute. The enzyme IC 50 values were calculated as described for the PDHc E1 assay. […]

porcine PDHc E1 = target: T3, porcine PDHc E1 (Sus scrofa, UniProt P29804); test: PDHc E1 inhibitory activity assay (DCPIP reduction); conditions: for L.E. (ligand efficiency) PDHc E1: binding energy in kcal mol^–1 derived from the KI value per heavy atom
T3 sequence (P29804 31-390): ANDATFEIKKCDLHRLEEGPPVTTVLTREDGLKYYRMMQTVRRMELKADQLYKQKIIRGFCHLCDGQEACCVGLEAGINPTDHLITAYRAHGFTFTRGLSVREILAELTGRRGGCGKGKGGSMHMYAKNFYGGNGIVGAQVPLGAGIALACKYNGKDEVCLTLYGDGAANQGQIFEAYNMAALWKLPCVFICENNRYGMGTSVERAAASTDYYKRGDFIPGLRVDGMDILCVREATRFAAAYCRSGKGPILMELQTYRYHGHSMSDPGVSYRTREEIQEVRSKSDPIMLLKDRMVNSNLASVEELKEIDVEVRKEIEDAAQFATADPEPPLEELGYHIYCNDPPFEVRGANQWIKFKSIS
Procedure: Enzyme assays – Methods and Results S1
Ligand efficiencies – Calculations S3 […]
Enzyme assays (Methods and Results)
PDHc E1 inhibitory activity assay. Porcine PDHc E1 was purchased from Sigma. Its activity was […]
determined by monitoring 2,6-dichlorophenolindophenol (DCPIP) reduction at 600 nm using a […]
microplate reader (CLARIOstar) and conducted as described 1,2 with some modifications. The percentage inhibition of compounds against porcine PDHc E1 was assayed at a final concentration of 250 µM. The reaction buffer (50 mM KH 2PO4 and 1 mM MgCl 2, pH 7) contained 50 µM ThDP (or 125 µM in the competition assay), 0.25 mM DCPIP, and 2 mg/ml porcine PDHc E1. The reaction mixture […]
was preincubated at 37 °C for 30 min, then the reaction was initiated by adding pyruvate to a final […]
concentration of 50 mM. To determine the half-maximal inhibitory concentration (IC 50 ), ThDP […]
concentration was lowered to 10 µM, and inhibitor concentration was varied (0.4-200 µM). Specific […]
activity was calculated using the molar extinction coefficient of DCPIP, 21 mM -1 cm-1.3 The enzyme […]
IC50 values were calculated from non-linear regression curve fitting using GraphPad Prism.

[1] = [Compound] = 1.5 mM, [ThDP] = 0.3 mM
[2] = increased ThDP: [Compound] = 1500 μM, [ThDP] = 750 μM
[3] = [Compound] = 250 μM, [ThDP] = 50 μM
[4] = increased ThDP: [Compound] = 250 μM, [ThDP] = 125 μM

Compound | Inhibition (%) PO (A. viridans PO; [3]) | Inhibition (%) PDHc E1 (porcine PDHc E1; [3]) | inhibition at 1500 µM (S. cerevisiae PDC; [1]) | also measured
Cc1ncc(Cn2cc(CCn3cc(-c4ccccc4)nn3)nn2)c(N)n1 [Compound 15a] | 22 ± 2% | 45 ± 3% | – | Inhibition (%) Yeast PDC (S. cerevisiae PDC; [1]): Insoluble; Inhibition (%) Yeast PDC (S. cerevisiae PDC; [2]): Insoluble; Inhibition (%) PO (A. viridans PO; [4]): <20%; Inhibition (%) PDHc E1 (porcine PDHc E1; [4]): <20%
Cc1ncc(Cn2cc(CCC(=O)NO)nn2)c(N)n1 [Compound 24a] | < 20% | 77 ± 3% | 41 ± 3% | –
COc1cccc(C(=O)NCCc2cn(Cc3cnc(C)nc3N)nn2)c1 [Compound 21a] | < 20% | 67 ± 4% | 48 ± 2% | –
COc1ccc(-c2cn(CCCCc3cn(Cc4cnc(C)nc4N)nn3)nn2)cc1 [Compound 17c] | < 20% | > 90% | – | Inhibition (%) Yeast PDC (S. cerevisiae PDC; [1]): Insoluble; Inhibition (%) Yeast PDC (S. cerevisiae PDC; [2]): Insoluble; Inhibition (%) PO (A. viridans PO; [4]): <20%; Ki (porcine PDHc E1): 0.03 µM; L.E. (ligand efficiency) PDHc E1 (porcine PDHc E1): 0.34; Inhibition (%) PDHc E1 (porcine PDHc E1; [4]): 82 ± 4%
Cc1ncc(Cn2cc(CCCO)nn2)c(N)n1 [Compound 9b] | < 20% | 52 ± 3% | 35 ± 2% | –
Cc1ncc(Cn2cc(CCCC(=O)NO)nn2)c(N)n1 [Compound 24b] | 35 ± 5% | > 90% | 65 ± 2% | inhibition at 1500 µM (S. cerevisiae PDC; [2]): 42 ± 4%; IC50 (A. viridans PO; [ThDP] 50 μM): 202 ± 19 µM; Ki (A. viridans PO; determined according to the KM for ThDP): 20.2 µM; Inhibition (%) PO (A. viridans PO; [4]): 27 ± 4%; L.E. (ligand efficiency) PDHc E1 (porcine PDHc E1): 0.50; Inhibition (%) PDHc E1 (porcine PDHc E1; [4]): 70 ± 3%
COc1ccccc1C(=O)NCCCCc1cn(Cc2cnc(C)nc2N)nn1 [Compound 22c] | < 20% | 58 ± 2% | – | Inhibition (%) Yeast PDC (S. cerevisiae PDC; [1]): Insoluble
Cc1ncc(Cn2cc(CCO)nn2)c(N)n1 [Compound 9a] | < 20% | 55 ± 2% | 37 ± 3% | –
Cc1ncc(Cn2cc(CCCNS(=O)(=O)C(F)(F)F)nn2)c(N)n1 [Compound 18b] | < 20% | 55 ± 2% | 37 ± 4% | –
Cc1ncc(Cn2cc(CCNC(=O)c3cccc(C#N)c3)nn2)c(N)n1 [Compound 20a] | < 20% | 46 ± 4% | < 20% | –
Cc1ncc(Cn2cc(CCNC(=O)c3cccc(-c4noc(C(F)(F)F)n4)c3)nn2)c(N)n1 [Compound 19a] | < 20% | 48 ± 3% | – | Inhibition (%) Yeast PDC (S. cerevisiae PDC; [1]): Insoluble
Cc1ncc(Cn2cc(CCn3cc(-c4ccc(F)cc4)nn3)nn2)c(N)n1 [Compound 16a] | < 20% | 42 ± 2% | – | Inhibition (%) Yeast PDC (S. cerevisiae PDC; [1]): Insoluble; Inhibition (%) Yeast PDC (S. cerevisiae PDC; [2]): Insoluble; Inhibition (%) PO (A. viridans PO; [4]): <20%; Inhibition (%) PDHc E1 (porcine PDHc E1; [4]): <20%
Cc1ncc(Cn2cc(CCNS(=O)(=O)C(F)(F)F)nn2)c(N)n1 [Compound 18a] | < 20% | 50 ± 2% | < 20% | –
Cc1ncc(Cn2cc(CCCC(=O)Nc3ccccc3N)nn2)c(N)n1 [Compound 26b] | < 20% | 59 ± 2% | 28 ± 3% | –
Cc1ncc(Cn2cc(CCCCC(=O)Nc3ccccc3N)nn2)c(N)n1 [Compound 26c] | < 20% | 64 ± 4% | < 20% | –
Cc1ncc(Cn2cc(CCCCO)nn2)c(N)n1 [Compound 9c] | < 20% | 57 ± 2% | 33 ± 4% | –
COc1ccccc1C(=O)NCCc1cn(Cc2cnc(C)nc2N)nn1 [Compound 22a] | < 20% | 83 ± 4% | 61 ± 4% | –
